Source: patent US11083199B2, “Heterocycle derivatives as pesticides” (Bayer Aktiengesellschaft, priority 2017, dated 2021)

How the values were obtained:
Format in all cases: in vivo
[1] = system: Myzus persicae; assay: Myzus persicae oral test; details: 120 h, application rate 4 ppm, after 5 days, read-out: efficacy
Method: [table] To produce a suitable active ingredient formulation, 1 part by weight of active ingredient is dissolved with the stated parts by weight of solvent and made up to the desired concentration with water. 50 μl of the active ingredient formulation are transferred into microtitre plates and made up to a final volume of 200 μl with 150 μl of IPL41 insect medium (33%+15% sugar). Subsequently, the plates are sealed with parafilm, which a mixed population of green peach aphids (Myzus persicae) within a second microtitre plate is able to puncture and imbibe the solution. After 5 days, the efficacy in % is determined. 100% means that all the aphids have been killed; 0% means that no aphids have been killed.

[2] = system: Myzus persicae; assay: Myzus persicae spray test; details: foliar, 120 h, application rate 100 g/ha, Chinese cabbage leaf discs, after 5 days, read-out: efficacy
Method: (§1) [table] To produce a suitable active ingredient formulation, 1 part by weight of active ingredient is dissolved with the specified parts by weight of solvent and made up to the desired concentration with water containing an emulsifier concentration of 1000 ppm. To produce further test concentrations, the formulation is diluted with emulsifier-containing water. Discs of Chinese cabbage leaves (Brassica pekinensis) infested by all stages of the green peach aphid (Myzus persicae) are sprayed with an active ingredient formulation of the desired concentration. After 5 days, the efficacy in % is determined. 100% means that all the aphids have been killed; 0% means that no aphids have been killed.

[3] = system: Phaedon cochleariae; assay: Phaedon cochleariae spray test; details: 168 h, application rate 100 g/ha, larvae, after 7 days, read-out: efficacy
Method: as §1, with “pekinensis)” for “pekinensis) infested by all stages of the green peach aphid (Myzus persicae)”, “concentration and, after drying, populated with larvae of the mustard beetle (Phaedon cochleariae).” for “concentration.”, “7” for “5”, “beetle larvae” for “aphids”

[4] = system: Spodoptera frugiperda; assay: Spodoptera frugiperda spray test; details: foliar, 168 h, application rate 100 g/ha, maize leaf discs, caterpillars, after 7 days, read-out: efficacy
Method: [table] To produce a suitable active ingredient formulation, 1 part by weight of active ingredient is dissolved with the specified parts by weight of solvent and made up to the desired concentration with water containing an emulsifier concentration of 1000 ppm. To produce further test concentrations, the formulation is diluted with emulsifier-containing water. Leaf discs of maize (Zea mays) are sprayed with an active ingredient formulation of the desired concentration and, after drying, populated with caterpillars of the fall armyworm (Spodoptera frugiperda). After 7 days, the efficacy in % is determined. 100% means that all the caterpillars have been killed; 0% means that no caterpillar has been killed.

| SMILES | pest or weed control at 4 ppm [1] | pest or weed control at 100 g/ha [2] | pest or weed control at 100 g/ha [3] | pest or weed control at 100 g/ha [4] |
| --- | --- | --- | --- | --- |
| CCS(=O)(=O)c1c(-c2nc3cc(C(F)(F)F)ncc3n2C)nc(Br)n1C(C)C [Example I-002] | 100% | – | – | – |
| CCS(=O)(=O)c1c(-c2nc3cc(C(F)(F)F)ncc3n2C)nc(Br)n1C [Example I-004, 2-[2-Bromo-5-(ethylsulfonyl)-1-methyl-1H-imidazol-4-yl]-3-methyl-6-(trifluoromethyl)-3H-imidazo[4,5-c]pyridine] | 100% | – | – | – |
| CCS(=O)(=O)c1c(-c2nc3cc(C(F)(F)F)ncc3n2C)nc(-c2cnccc2F)n1C [Example I-017] | 100% | 100% | – | – |
| CCS(=O)(=O)c1c(-c2nc3cc(C(F)(F)F)ncc3n2C)nc(C#CC2CC2)n1C [Example I-024] | 90% | – | 100% | 100% |
| CCS(=O)(=O)c1c(-c2nc3cc(C(F)(F)F)ncc3n2C)nc(-n2cccn2)n1C [Example I-026] | 100% | 90% | 100% | – |
| CCS(=O)(=O)c1c(-c2nc3cc(C(F)(F)F)ncc3n2C)nc(-n2ccnc2)n1C [Example I-028] | 100% | 90% | 100% | – |
| CCS(=O)(=O)c1c(-c2nc3cc(C(F)(F)F)ncc3n2C)nc(-c2cc(Cl)sc2Cl)n1C [Example I-031] | 100% | – | – | – |
| CCS(=O)(=O)c1c(-c2nc3cc(C(F)(F)F)ncc3n2C)nc(-c2cccn2C)n1C [Example I-032] | 100% | – | – | – |
| CCS(=O)(=O)c1c(-c2nc3cc(C(F)(F)F)ncc3n2C)nc(-c2cn[nH]c2)n1C [Example I-034] | 100% | 90% | – | – |
| CCSc1c(-c2nc3cc(C(F)(F)F)ncc3n2C)nc(C(=O)OC)n1C [Example I-035, Methyl 5-(ethylsulfanyl)-1-methyl-4-[3-methyl-6-(trifluoromethyl)-3H-imidazo[4,5-c]pyridin-2-yl]-1H-imidazole-2-carboxylate] | – | – | 83% | – |
| CCS(=O)(=O)c1c(-c2nc3cc(C(F)(F)F)ncc3n2C)nc(C(=O)OC)n1C [Example I-036, Methyl 5-(ethylsulfonyl)-1-methyl-4-[3-methyl-6-(trifluoromethyl)-3H-imidazo[4,5-c]pyridin-2-yl]-1H-imidazole-2-carboxylate] | 100% | 100% | 100% | – |
| CCS(=O)(=O)c1c(-c2nc3cc(C(F)(F)F)ncc3n2C)nc(C(=O)NCC(F)(F)F)n1C [Example I-037] | 90% | – | – | – |
| CCS(=O)(=O)c1c(-c2nc3cc(C(F)(F)F)ncc3n2C)nc(-c2cccs2)n1C [Example I-044] | 100% | – | – | – |
| CCS(=O)(=O)c1c(-c2nc3cc(C(F)(F)F)ncc3n2C)nc(C#N)n1C [Example I-045, 5-(Ethylsulfonyl)-1-methyl-4-[3-methyl-6-(trifluoromethyl)-3H-imidazo[4,5-c]pyridin-2-yl]-1H-imidazole-2-carbonitrile] | 100% | – | – | – |
| CCS(=O)(=O)c1c(-c2nc3cc(C(F)(F)F)ncc3n2C)nc(C(=S)NC)n1C [Example I-047] | 100% | 100% | – | – |
| CCS(=O)(=O)c1c(-c2nc3cc(C(F)(F)F)ncc3n2C)nc(C(=S)N(C)C)n1C [Example I-048] | 100% | 90% | – | – |
| CCS(=O)(=O)c1c(-c2nc3cc(C(F)(F)F)ncc3n2C)nc(-c2cncs2)n1C [Example I-051] | 100% | 90% | – | – |
| CCS(=O)(=O)c1c(-c2nc3cc(C(F)(F)F)ncc3n2C)nc(-c2cncn2C)n1C [Example I-052] | 100% | – | – | – |
| CCS(=O)(=O)c1c(-c2nc3cc(C(F)(F)F)ncc3n2C)nc(-c2nccn2C)n1C [Example I-053] | 100% | – | – | – |
| CCS(=O)(=O)c1c(-c2nc3cc(C(F)(F)F)nnc3n2C)nc(Br)n1C [Example I-056] | 100% | – | – | – |

| SMILES | pest or weed control at 4 ppm [1] | pest or weed control at 100 g/ha [2] | pest or weed control at 100 g/ha [3] | pest or weed control at 100 g/ha [4] |
| --- | --- | --- | --- | --- |
| CCS(=O)(=O)c1c(-c2nc3cc(C(F)(F)F)ncc3n2C)nc(-c2cnc(C)s2)n1C [Example I-058] | 100% | 90% | – | – |
| CCS(=O)(=O)c1c(-c2nc3cc(C(F)(F)F)ncc3n2C)nc(-c2cnc(Cl)n2C)n1C [Example I-059] | 100% | 100% | 100% | – |
| CC(C)S(=O)(=O)c1c(-c2nc3cc(C(F)(F)F)ncc3n2C)nc(-c2ccn(C)n2)n1C [Example I-061] | 100% | 100% | 100% | – |
| CCS(=O)(=O)c1c(-c2nc3cc(C(F)(F)F)ncc3n2C)nc(-c2ccnn2C)n1C [Example I-062] | 100% | 100% | 100% | – |
| CCS(=O)(=O)c1c(-c2nc3cc(C(F)(F)F)ncc3n2C)nc(C)n1C [Example I-064] | 100% | 100% | 83% | – |
| CCS(=O)(=O)c1c(-c2nc3cc(C(F)(F)F)ncc3n2C)nc(-c2ccc(CC#N)cc2)n1C [Example I-065] | 100% | 100% | – | – |
| CCS(=O)(=O)c1c(-c2nc3cc(C(F)(F)F)ncc3n2C)nc(-c2cnn(CC(F)(F)F)c2)n1C [Example I-067] | 100% | 100% | 100% | – |
| CCS(=O)(=O)c1c(-c2nc3cc(C(F)(F)F)ncc3n2C)nc(-c2cc(C(F)(F)F)nn2C)n1C [Example I-068] | 100% | – | 100% | – |
| CCS(=O)(=O)c1c(-c2nc3cc(C(F)(F)F)ncc3n2C)nc(C2=CCCCC2)n1C [Example I-071] | – | 90% | – | – |
| CCS(=O)(=O)c1c(-c2nc3cc(C(F)(F)F)ncc3n2C)nc(C2=CCC(C(F)(F)F)CC2)n1C (centres unmarked) [Example I-072] | 100% | – | – | – |
| CCS(=O)(=O)c1c(-c2nc3cc(C(F)(F)F)ncc3n2C)nc(-c2ccc(C(F)(F)F)cc2C)n1C [Example I-078] | 90% | – | 100% | 100% |
| CCS(=O)(=O)c1c(-c2nc3cc(C(F)(F)F)ncc3n2C)nc(-c2ccc(Cl)c(C#N)c2)n1C [Example I-079] | 100% | 90% | 83% | – |
| CCS(=O)(=O)c1c(-c2nc3cc(C(F)(F)F)ncc3n2C)nc(-c2ccc(C#N)c(C(F)(F)F)c2)n1C [Example I-080] | 100% | – | 100% | – |
| CCS(=O)(=O)c1c(-c2nc3cc(C(F)(F)F)ncc3n2C)nc(-c2cc(Cl)c(C(F)(F)F)cc2C)n1C [Example I-081] | 100% | – | 100% | 100% |
| CCc1nc(-c2nc3cc(C(F)(F)F)ncc3n2C)c(S(=O)(=O)CC)n1C [Example I-084] | 100% | 90% | – | – |
| CCS(=O)(=O)c1c(-c2nc3cc(C(F)(F)F)ncc3n2C)nc(CCC2CC2)n1C [Example I-085, 2-[2-(2-Cyclopropylethyl)-5-(ethylsulfonyl)-1-methyl-1H-imidazol-4-yl]-3-methyl-6-(trifluoromethyl)-3H-imidazo[4,5-c]pyridine] | 100% | 90% | – | – |
| CCS(=O)(=O)c1c(-n2cc3cnc(C(F)(F)F)cc3n2)nc(-c2ccc(Cl)cc2)n1C [Example I-093] | 100% | – | 100% | 100% |
| CCS(=O)(=O)c1c(-n2cc3ncc(C(F)(F)F)cc3n2)nc(-c2ccc(Cl)cc2)n1C [Example I-094] | 100% | – | 83% | 100% |
| CCS(=O)(=O)c1c(-n2cc3cnc(C(F)(F)F)cc3n2)nc(-c2ccccc2)n1C [Example I-095] | 100% | 90% | – | 100% |
